Source: paper PMC6847237 (2019)
Each block holds one compound with its values, some of them ahead of it.

How the values were obtained:
[1] = test system: (GCAGCAGC)2 (RNA, mismatch bulge abasic) GCAGCAGC; assay: X-ray crystallography; details: RNA 0.75 mM, RNA:ligand 1:2 mixed
[2] = test system: (CAG)9 (5'-biotinylated, immobilized) (RNA, repeat) CAGCAGCAGCAGCAGCAGCAGCAGCAG; assay: SPR single cycle kinetics; details: 150 mM NaCl; 10 mM HEPES pH 7.4, 3 mM EDTA, 0.005% P20, 5% DMSO; 0.1-0.5 μM ligand
[3] = test system: (CAG)9 (RNA, repeat) CAGCAGCAGCAGCAGCAGCAGCAGCAG; assay: CD titration at 347.5 nm; details: 100 mM NaCl, 10 mM sodium cacodylate pH 7.0, ambient temperature, RNA 2.5 μM, 1:2 binding isotherm
[4] = test system: (CGG)9 (5'-biotinylated, immobilized) (RNA, repeat) CGGCGGCGGCGGCGGCGGCGGCGGCGG; assay: SPR single cycle kinetics; details: 150 mM NaCl; 10 mM HEPES pH 7.4, 3 mM EDTA, 0.005% P20, 5% DMSO; highest tested 0.5 μM
[5] = test system: (UCAACAGUUGA)2 (RNA, mismatch bulge abasic) UCAACAGUUGA; assay: UV melting at 260 nm, median method; details: 100 mM NaCl; 10 mM sodium cacodylate pH 7.0, 2% DMSO; RNA 5 μM, CMBL3a 20 μM
[6] = test system: GCAG(2′-SeCH3-C)AGC (RNA, mismatch bulge abasic, 2'-methylseleno cytidine at 5) GCAGCAGC; assay: X-ray crystallography (SAD); details: 5 mM MgCl2; TRIS pH 7.5, 30% PEG 400; RNA 0.75 mM, RNA:ligand 1:2 mixed
[7] = test system: (CCG)9 (5'-biotinylated, immobilized) (RNA, repeat) CCGCCGCCGCCGCCGCCGCCGCCGCCG; assay: SPR single cycle kinetics; details: 150 mM NaCl; 10 mM HEPES pH 7.4, 3 mM EDTA, 0.005% P20, 5% DMSO; highest tested 0.5 μM

- binding ([1]; 20 mM magnesium acetate, 1.7 M ammonium sulfate, cacodylate pH 6.0): yes
SMILES: O=C1Nc2ccc3ccc(nc3n2)CNCc2ccc3ccc(nc3n2)NC(=O)OCC/C=C\CCO1

- binding [2]: yes
- apparent Kd [3]: 70.5 µM
- binding ([1]; 10 mM MgCl2, 1 M Li2SO4, cacodylate pH 6.0): yes
- binding [4]: no
- binding [5]: yes
- binding [6]: yes
- binding [7]: no
SMILES: O=C1Nc2ccc3ccc(nc3n2)CNCc2ccc3ccc(nc3n2)NC(=O)OCC/C=C/CCO1

- binding ([1]; 2 mM MgCl2, 5 mM hexamine cobalt chloride, MOPS pH 7.0, Tacsimate): yes
SMILES: O=C1Nc2ccc3ccc(nc3n2)CNCc2ccc3ccc(nc3n2)NC(=O)OCCCNCCCO1
